Laboratory results taken from PMC7508748, “Active tyrosine phenol-lyase aggregates induced by terminally attached functional peptides in Escherichia coli” (Journal of Industrial Microbiology & Biotechnology, 2020).

Legend:
Experiment in all cases: Lineweaver-Burk, initial rates
Format in all cases: biochemical
Details in all cases: 20 °C, PLP 30 µM, 0.1-6 mM L-DOPA
TPL-ELP10 = tested on: TPL-ELP10
TPL-GFIL16 = tested on: TPL-GFIL16
TPL = tested on: T1, TPL
T1 construct: 6xHis tag kept, pET28a, E. coli BL21(DE3) host, His-Trap purified; 52 kDa; tetramer

TPL-EAK16 = tested on: TPL-EAK16
TPL-DKL6 = tested on: TPL-DKL6
TPL-18A = tested on: TPL-18A
Excerpt: Lineweaver-Burk, initial rates on TPL-18A | The Vmax of TPL-DKL6, TPL-ELP10, TPL-EAK16, TPL-18A, and TPL-GFIL16 was higher

- Km (TPL-ELP10): 2680 ± 129 µM
- Km (TPL-GFIL16): 2220 ± 14 µM
- Km (TPL): 2190 µM
- Km (TPL-EAK16): 2360 ± 26 µM
- Km (TPL-DKL6): 2320 ± 504 µM
- Km (TPL-18A): 2180 ± 356 µM
Structure (SMILES): N[C@@H](Cc1ccc(O)c(O)c1)C(=O)O [L-DOPA]
